Data set [1] concerns the target nuclear retinoic acid receptor (RAR). The settings on record: literature; read-out: nuclear retinoic acid receptor (RAR) binding affinity Kd; cited from earlier work.
Data set [2] concerns CT/CGRP enhancer. As to the kind of experiment: CT/CGRP promoter/enhancer reporter gene (luciferase/CAT) transfection assay in 44-2C cells.
Description: (§1) The 44-2C rat medullary thyroid carcinoma cell line was maintained in DMEM (high glucose) with 1% equine serum (HyClone Laboratories, Logan, Utah) and 0.1% L-glutamine; CA77 rat medullary thyroid carcinoma cells in Ham's F-12 medium/DMEM (low glucose)(1:1) with 10% fetal bovine serum (HyClone Laboratories); HeLa human epithelial derived cells in Ham's F-12 medium with 10% fetal bovine serum; and Rat1 fibroblast cells in DMEM (high glucose) with 10% calf serum. Also, 100 units/ml penicillin and 100 μg/ml streptomycin (GIBCO) were added to each culture medium.
(§2) Transfections were carried out by growing cells to approximately 80% confluency, harvesting them by brief trypsin/EDTA treatment, and resuspending them in Ca^2+ /Mg^2+ -free PBS.
In the retinoic acid experiments, the cells were treated essentially as above except that an apparently critical parameter for retinoic acid inhibition was that the CA77 cells could not be aggregated into clumps. To be consistent, all cell types were subcultured by trypsin treatment 1 day prior to the experiment, except for the 44-2C cells, which often required 2 days to firmly attach. About 4-5×10^6 cells in 0.8 ml were transfected with supercoiled DNA by electroporation using a Biorad Gene Pulser apparatus at 200 volts for the CA77 cells, 220 volts for the HeLa cells, and 260 volts for the 44-2C cells, all with a capacitance of 960 microfarads. The same amount of DNA (20 μg) was used per cuvette unless otherwise indicated. For the α-RXR cotransfection assays, 10 μg 18 bp CT/CGRP-TK-luc plasmid, 18 μg RSV-α-RAR plasmid, or 2 μg β-actin-RXR plasmid (brought to 30 μg total DNA with CMV-β-gal plasmid) were transfected into the cells (constructs described in Glass, C. K., S. M. Lipkin, O. V. Devary, and M. G. Rosenfeld (1989) Cell 59, 697-708; Glass, C. K., O. V. Devary, and M. G. Rosenfeld (1990) Cell 63, 729-738). The transfected cells from a single cuvette were then split between two 60 mm dishes and treated with 1 mM retinoic acid (Sigma) or the vehicle (0.01% ethanol). About 50 to 80% cell survival of the electroporation procedure was observed, except the 44-2C cells, in which approximately 25% of the cells were recovered. The cells were harvested 18-25 hours after transfection. Activities are reported per 50 μg protein unless otherwise noted.
Activity of the reporter genes and control constructs was measured by luciferase, CAT, or β-Galactosidase assays.
The subject of a further data set is calcitonin and CGRP mRNA. The settings on record: CA77 cells, retinoic acid treatment, literature; cited from earlier work.
The test system of data set [3] is CT/CGRP enhancer. Briefly: CT/CGRP promoter/enhancer luciferase reporter transfection assay in HeLa cells. The format is cell-based, human.
Data set [4] has as its system retinoic acid responsive element from the β-retinoic acid receptor gene (RARE-TK-luc). As to the kind of experiment: cells. The settings on record: Rattus norvegicus.
Protocol: In the retinoic acid experiments, the cells were treated essentially as above except that an apparently critical parameter for retinoic acid inhibition was that the CA77 cells could not be aggregated into clumps. […] About 4-5×10^6 cells in 0.8 ml were transfected with supercoiled DNA by electroporation using a Biorad Gene Pulser apparatus at 200 volts for the CA77 cells, 220 volts for the HeLa cells, and 260 volts for the 44-2C cells, all with a capacitance of 960 microfarads. The same amount of DNA (20 μg) was used per cuvette unless otherwise indicated. For the α-RXR cotransfection assays, 10 μg 18 bp CT/CGRP-TK-luc plasmid, 18 μg RSV-α-RAR plasmid, or 2 μg β-actin-RXR plasmid (brought to 30 μg total DNA with CMV-β-gal plasmid) were transfected into the cells (constructs described in Glass, C. K., S. M. Lipkin, O. V. Devary, and M. G. Rosenfeld (1989) Cell 59, 697-708; Glass, C. K., O. V. Devary, and M. G. Rosenfeld (1990) Cell 63, 729-738). The transfected cells from a single cuvette were then split between two 60 mm dishes and treated with 1 mM retinoic acid (Sigma) or the vehicle (0.01% ethanol). […] The cells were harvested 18-25 hours after transfection. Activities are reported per 50 μg protein unless otherwise noted.
Activity of the reporter genes and control constructs was measured by luciferase, CAT, or β-Galactosidase assays. To carry out the luciferase assays, cells were washed twice in PBS, harvested by scraping into PBS and then lysed in 100 μl of Triton lysis buffer (1% Triton X-100, 25 mM glycylclycine, pH 7.8, 15 mM MgSO4, 1 mM dithiothreitol). After centrifugation, 20-50 μl of supernatant cell extract was assayed for luciferase activity as previously described (Braiser, A. R., Tate, J. E., and Habener, J. F. (1989) Biotechniques 7, 1116-1122) using a luminometer (Analytical Luminescence Laboratory Monolight 2001). The assay was linear between 100 (background) and at least 800,000 light units.
The test system of data set [5] is CT/CGRP enhancer. Briefly: CT/CGRP promoter/enhancer luciferase reporter transfection assay in CA77 cells. Type of data set: cell-based, rat. (In a reporter assay the amount or activity of a reporter protein is the signal.)
Data set [6] relates to H/OB, OB2, HB1 and Oct-1 complexes on CT/CGRP enhancer. Briefly: Electrophoretic mobility shift assay of CT/CGRP enhancer complexes in CA77 nuclear extracts. The settings on record: nuclear extracts from CA77 cells treated 24 hours with retinoic acid. The format is biochemical, rat. In general terms: In EMSA bound probe runs differently from free probe, usually more slowly.
Protocol: To perform electrophoretic mobility shift assays, nuclei were harvested from approximately 10^8 cells using a previously described miniextract preparation protocol, with one modification (Lee, K. A. W., and Green, M. R. (1990) Methods Enzymol. 181, 20-25). Instead of dialyzing the extract to remove excess NaCl, the extract was diluted 1:1 with extract buffer lacking NaCl. Aliquots of the diluted extract were stored at -70° C. Annealed oligonucleotide duplexes (10 pmol) containing recessed 3' termini were labeled for use as probes by incorporation of [^32 P]dATP (25 μCi, 3000 Ci/mmol) using Klenow DNA polymerase. Both strands of blunt-ended oligonucleotides (10 pmol) were labeled separately using T4 polynucleotide kinase and [γ-^32 P]ATP (20 μCi, 3000 Ci/mmol), then annealed. Unlabeled oligonucleotides used for competition assays were annealed and then treated with Klenow DNA polymerase if the ends were not already blunt. All probes and competitor DNAs were purified over Sephadex G50 columns.
The binding reaction (20 μl) contained approximately 3 μg (1-2 μl) of nuclear extract, 0.02 pmol of ^32 P-labeled DNA probe (50,000-100,000 cpm), 10 mM Tris-HCl, pH 7.5, 5% glycerol, 50 mM NaCl, 1 mM EDTA, and 1 mM dithiothreitol. Also, 0.1 μg of poly [d(I-C)] […] Unlabeled competitors were preincubated with nuclear extracts 10 minutes on ice prior to addition of probe. […]
Data set [7] relates to cytomegalovirus promoter / thymidine kinase promoter. Briefly: Control reporter genes CMV-luc and TK-luc in CA77 and 44-2C cells. Type of data set: cell-based, rat. The settings on record: 1 μM retinoic acid.
Data set [8] has as its system CT/CGRP enhancer. As to the kind of experiment: CT/CGRP promoter/enhancer luciferase reporter transfection assay in Rat1 fibroblast cells. Type of data set: cell-based, rat.
Description: Reporter fusion genes were constructed for experiments to localize cis-active elements responsible for glucocorticoid repression of the CT/CGRP gene.
as §1, §2
Activity of the reporter genes and control constructs was measured by luciferase, CAT, or β-Galactosidase assays. […] After centrifugation, 20-50 μl of supernatant cell extract was assayed for luciferase activity as previously described (Braiser, A. R., Tate, J. E., and Habener, J. F. (1989) Biotechniques 7, 1116-1122) using a luminometer (Analytical Luminescence Laboratory Monolight 2001). […]

Like-named read-outs stand apart in the source and are kept apart here.

Regarding `CC1=C(/C=C/C(C)=C/C=C/C(C)=C/C(=O)O)C(C)(C)CCC1` [retinoic acid], in data set [1], the Kd is 0.2 nM. Moreover, in the data set on CT/CGRP enhancer [2] (44-2C cells, 1 μM retinoic acid), the “repression of 1125-920-TK-luc activity” value is reported as 2 fold. Moreover, in the data set with calcitonin and CGRP mRNA, the “decrease in calcitonin and CGRP mRNA levels” value is 2-3 fold. Further, the “effect on 1125-920-TK-luc activity” value with CT/CGRP enhancer [3] (HeLa cells, 1 μM retinoic acid, also with α-RAR/α-RXR cotransfection) is given as “no effect”. Further, the fold induction at 1 µM in [4] (read-out: increase in RARE-TK-luc activity, 44-2C cells, 1 μM retinoic acid) amounted to 35. In addition, in data set [4] (read-out: increase in RARE-TK-luc activity, CA77 cells, 1 μM retinoic acid, no cotransfected receptor), the fold induction at 1 µM turned out to be 5. Moreover, the fold induction at 1 µM in [4] (read-out: retinoic acid dependent stimulation of RARE-TK-luc activity with cotransfected α-RAR, CA77 cells, 1 μM retinoic acid, α-RAR expression vector) is 15. Also, in the data set on CT/CGRP enhancer [5], the “retinoic acid dependent repression with 75 bp and 18 bp fragments (TK-luc)” value is on record as “comparable to the full 205 bp region”; the “retinoic acid dependent repression with 1039-1125-TK-luc and 920-1038-TK-luc” value was “Neither 1039-1125-TK-luc nor 920-1038-TK-luc exhibited retinoic acid dependent repression”; the “retinoic acid repression with HLH or Oct mutant constructs” value is “neither the HLH or Oct mutant constructs conferred retinoic acid repression”. Moreover, the “maximal repression of 1125 CAL-luc, decrease of control activity” value with CT/CGRP enhancer [5] (100 nM retinoic acid) amounted to 3 fold. In addition, the “repression of promoter fragments containing 920 bp or less” value with CT/CGRP enhancer [5] (1 μM retinoic acid) is “not repressed”. The “decrease in promoter activity of luciferase fusion genes containing 1125 bp or more 5' flanking sequences” value with CT/CGRP enhancer [5] (1 μM retinoic acid, 24 hours) was 2-3 fold. Besides, the “repression in CAL1125-luc activity without cotransfected receptor” value in the data set with CT/CGRP enhancer [5] (1 μM retinoic acid, parallel cultures) was 2 fold. In addition, in the data set with CT/CGRP enhancer [5] (1 μM retinoic acid, α-RAR expression vector), the “retinoic acid dependent repression in CAL1125-luc activity with cotransfected α-RAR” value worked out at 5 fold. The IC50 with CT/CGRP enhancer [5] (Rattus norvegicus, read-out: amount required for half-maximal repression of 1125 CAL-luc) was roughly 0.2 nM. In [6], the “change in OB2, HB1, or Oct-1 complexes” value is given as “no significant change” and the “decrease in H/OB complex (densitometric scans)” value is reported as roughly 2 fold. Moreover, the “effect on TK-luc activity” value in [7] (44-2C cells) is listed as “no effect”. In data set [7] (CA77 cells), the “effect on CMV-luc and TK-luc” value is “not significantly affected”.
Take `C[C@@H]1C[C@H]2[C@@H]3CCC4=CC(=O)C=C[C@]4(C)[C@@]3(F)[C@@H](O)C[C@]2(C)[C@@]1(O)C(=O)CO` [dexamethasone]: the “repression of -920-1125 TK-LUC fusion gene expression” value in the data set on CT/CGRP enhancer [2] (44-2C cells, 500 nM dexamethasone) is 2.5-3 fold. The “repression of promoter activity of fusion genes containing at least 1125 bp of upstream sequences” value in the data set with CT/CGRP enhancer [2] (44-2C cells, 500 nM dexamethasone, 24 h) was 2.5-4.5 fold. Further, in the data set with CT/CGRP enhancer [2] (44-2C cells, 500 nM dexamethasone, a few experiments), the “repression of -920-1125 TK-LUC fusion gene expression, in a few experiments” value is given as no more than 10 fold. For the same molecule, the “effect on gene activity from the shorter constructs” value in the data set with CT/CGRP enhancer [2] (44-2C cells, 500 nM dexamethasone, constructs lacking -920-1125 region) is given as “slightly stimulated”. Further, the “repression with -1091-1017 and -1043-1025 elements (TK-LUC)” value in the data set on CT/CGRP enhancer [2] (44-2C cells, dexamethasone) came to 24 fold. Further, the “repression of -920-1125-TK-LUC promoter activity in dose response” value with CT/CGRP enhancer [2] (44-2C cells, dexamethasone concentrations above 50 nM, 24 h) is listed as “approximately 10 fold”. Also, the IC50 in the data set with CT/CGRP enhancer [2] (Rattus norvegicus, 24 h, read-out: dexamethasone concentration for half-maximal inhibition of -920-1125-TK-LUC) is 2.5 nM. For the same molecule, the “repression of activity of the -920-1125 enhancer” value in the data set on CT/CGRP enhancer [3] (HeLa cells) and in the data set with CT/CGRP enhancer [8] was “did not repress” in each case. In addition, in the data set with CT/CGRP enhancer [3] (non-neuroendocrine cells), the “stimulation of reporter activity of all plasmids including TK-LUC” value is listed as 1.5-2 fold. For the same molecule, the “repression of calcitonin/CGRP promoter fusion genes containing the -920-1125-bp element” value with CT/CGRP enhancer [5] (dexamethasone treatment) is “did not repress”. In addition, the “repression with smaller elements that include the 18-bp region (TK-LUC)” value with CT/CGRP enhancer [5] (p<0.01) was determined as 1.6 fold. The “repression of activity of the -920-1125-bp region (TK-LUC)” value with CT/CGRP enhancer [5] (p<0.05) was 1.2 fold.
`CC1=C(/C=C/C(C)=C/C=C/C(C)=C/C=O)C(C)(C)CCC1` [Retinal, retinal]: in the data set with CT/CGRP enhancer [5] (Rattus norvegicus, 1125 CAL-luc, read-out: concentrations at which CT/CGRP promoter activity was repressed), the minimal effective concentration is no less than 0.1 µM. In addition, the IC50 in the data set on CT/CGRP enhancer [5] (Rattus norvegicus, 1125 CAL-luc, read-out: half-maximal repression of CT/CGRP promoter activity) was determined as 300 nM.

A word on the Kd: it is the equilibrium constant for the complex coming apart.

Values taken from patent US6159735A, “Calcitonin/calcitonin gene related peptide enhancer element and associated DNA binding proteins” (University of Iowa Research Foundation, priority 1995, dated 2000).
